Assay results taken from patent US9433607B2, “Composition for prevention or treatment of cancer comprising N-methylenenaphtho[2,1-b]furan-2-carbohydrazide derivatives as an active ingredient” (KOREA RESEARCH INSTITUTE OF BIOSCIENCE AND BIOTECHNOLOGY, priority 2012, dated 2016).
pIC50: −log10 of the molar value.

How the values were obtained:
[1] = test system: HeLa cells; assay: Immunofluorescence of intracellular microtubules and chromosomes; type: cell-based
Experimental: To investigate the effect of ethyl(2-methyl-3{(E)-[(naphtho[2,1-b]furan-2-ylcarbonyl)hydrazono]methyl}-1H-indole-1-yl)acetate on intracellular microtubules, HeLa cells were treated with DMSO, Taxol (100 μM), nocodazole (200 ng/ml), or ethyl(2-methyl-3{(E)-[(naphtho[2,1-b]furan-2-ylcarbonyl)hydrazono]methyl}-1H-indole-1-yl)acetate (5 μM) for 17 hours. After fixing the cells, the cells were immuno-stained with Alexa Fluor 488-conjugated anti-tubulin antibody and Hoechst 33342 to confirm α-tubulin and chromosomes.

[2] = test system: K562; assay: Cytotoxicity MTT assay, K562; type: cell-based; conditions: Homo sapiens, 96 h, 4 days
Experimental: (§1) Particularly, K562, MCF7 (Bio-Evaluation Center, Korea Research Institute of Bioscience and Biotechnology, Korea), and the multi-drug resistant cell lines thereof, K562/ADR and MCF7/ADR (Bio-Evaluation Center, Korea Research Institute of Bioscience and Biotechnology, Korea) were cultured in microtiter plate (1-3×10^3 cells/well). Then, the cells were treated with ethyl(2-methyl-3{(E)-[(naphtho[2,1-b]furan-2-ylcarbonyl)hydrazono]methyl}-1H-indole-1-yl)acetate, doxorubicin, or taxol, followed by culture for 4 days. Cytotoxicity was investigated by MTT assay by the same manner as described in Example <1-2>. IC50 was calculated by long-dose response curve. The data presents the mean value obtained from the assay performed in triplicate (Table 3).

[3] = test system: purified tubulin; assay: In vitro tubulin polymerization, degree of turbidity; type: biochemical; conditions: 5 μM, purified tubulin and GTP, 340 nm
Experimental: To measure the polymerization of tubulin in vitro, the buffer containing the purified tubulin and GTP was treated with ethyl(2-methyl-3{(E)-[(naphtho[2,1-b]furan-2-ylcarbonyl)hydrazono]methyl}-1H-indole-1-yl)acetate at the concentration of 5 μM. DMSO, and the equivalent Taxol and vinblastine were used as the controls. The polymerization of tubulin into microtubules was determined if the degree of turbidity was 340 nm.

[4] = test system: NCl-H460; assay: Anti-proliferative MTT assay, NCl-H460; type: cell-based; conditions: 96 h, NCl-H460, Lung, 4 days
Experimental: (§2) Various cancer cell lines (rectal cancer, prostate cancer, breast cancer, lung cancer, stomach cancer, liver cancer, leukemia, brain cancer, and glioma cell lines) were cultured in microtiter plate (1-3×10^3 cells/well), to which ethyl(2-methyl-3{(E)-[(naphtho[2,1-b]furan-2-ylcarbonyl)hydrazono]methyl}-1H-indole-1-yl)acetate was treated. The culture continued for 4 days. Cytotoxicity was investigated by MTT assay by the same manner as described in Example <1-2>. IC50 was calculated by long-dose response curve. The data presents the mean value obtained from the assay performed in triplicate.

[5] = test system: K562/ADR; assay: Cytotoxicity MTT assay, multi-drug resistant K562/ADR; type: cell-based
Experimental: as §1
(§3) The resistance factor of the multi-drug resistant cell line indicates the ratio of IC50 of the multi-drug resistant cell line to IC50 of the parent cell line showing no resistance, which was presented as a number in the bracket.

[6] = test system: U373MG; assay: Anti-proliferative MTT assay, U373MG; type: cell-based; conditions: Homo sapiens, U373 MG, 96 h, Brain, 4 days
Experimental: as §2

[7] = test system: SNB-75; assay: Anti-proliferative MTT assay, SNB-75; type: cell-based; conditions: Homo sapiens, 96 h, SNB-75, Brain, 4 days
Experimental: as §2

[8] = test system: MCF7; assay: Cytotoxicity MTT assay, MCF7; type: cell-based; conditions: Homo sapiens, 96 h, 4 days
Experimental: as §1

[9] = test system: HCT116; assay: Anti-proliferative MTT assay, HCT116; type: cell-based; conditions: Homo sapiens, HCT-116, 96 h, HCT116, Large intestine, 4 days
Experimental: as §2

[10] = test system: MDA-MB-231; assay: Anti-proliferative MTT assay, MDA-MB-231; type: cell-based; conditions: Homo sapiens, 96 h, MDA-MB-231, Breast, 4 days
Experimental: as §2

[11] = test system: Cdc25C, Cyclin B1, and Plk1 (Polo-like kinase 1); assay: Immunoblotting of proteins regulating cell division; type: cell-based; conditions: HeLa cells, 17 hours
Source text: The effect of ethyl(2-methyl-3{(E)-[(naphtho[2,1-b]furan-2-ylcarbonyl)hydrazono]methyl}-1H-indole-1-yl)acetate on Cdc25C, Cyclin B1, and Plk1 (Polo-like kinase 1), the proteins regulating cell division, was investigated. When Cdc25C is activated in the course of cell division, Cdc25C is hyperphosphorylated so that its movement on SDS-PAGE is slowed down. Based on that principal, Cdc25C activation was investigated. Referring that the expressions of Cyclin B1 and Plk1 are differently regulated in each stage of cell cycle, the expression of each protein was measured. The levels of Cyclin B1 and Plk1 were the lowest in G1 phase.
HeLa cells were treated with DMSO, nocodazole (NOC), or ethyl(2-methyl-3{(E)-[(naphtho[2,1-b]furan-2-ylcarbonyl)hydrazono]methyl}-1H-indole-1-yl)acetate for 17 hours. The cells were harvested, followed by immunoblotting using cyclin B1, Cdc25C, Plk1, and GAPDH specific antibodies. GAPDH was used as a loading control.

[12] = test system: MCF7/ADR; assay: Cytotoxicity MTT assay, multi-drug resistant MCF7/ADR; type: cell-based
Experimental: as §1, §3

[13] = test system: HL60; assay: Anti-proliferative MTT assay, HL60; type: cell-based; conditions: Homo sapiens, HL-60, 96 h, HL60, Blood, 4 days
Experimental: as §2

[14] = test system: A-172; assay: Anti-proliferative MTT assay, A-172; type: cell-based; conditions: Homo sapiens, 96 h, A-172, Brain, 4 days
Experimental: as §2

pIC50 [4]: 6.09
pIC50 [9]: 6.14
pIC50 [10]: 6.27
pIC50 [13]: 6.25
Structure (SMILES): CCOC(=O)Cn1c(C)c(/C=N/NC(=O)c2cc3c(ccc4ccccc43)o2)c2ccccc21 [STK899704]
effect on microtubules (immunofluorescence over concentrations) ([1]; 1 μM): all the microtubules were destroyed
effect on microtubules and chromosomes (immunostaining) ([1]; 17 hours, Taxol 100 μM, nocodazole 200 ng/ml, compound 5 μM): chromosomes were not fully condensed and microtubules were destroyed
pIC50 [2]: 6.35
degree of turbidity (tubulin polymerization) compared with Taxol [3]: the degree of turbidity was lower
pIC50 ([5]; Homo sapiens, 96 h, K562/ADR, MTT, 4 days): 3.55
resistance factor (number in the bracket) ([5]; ratio of IC50 of K562/ADR to IC50 of parent K562): 0.6
pIC50 [6]: 6.29
pIC50 [7]: 6.23
pIC50 [8]: 2.97
effect on Cdc25C, cyclin B1 and Plk1 (immunoblotting) [11]: Cdc25C was phosphorylated and cyclin B1 and Plk1 were accumulated
pIC50 ([12]; Homo sapiens, NCI/ADR-RES, 96 h, MCF7/ADR, MTT, 4 days): 3.65
resistance factor (number in the bracket) ([12]; ratio of IC50 of MCF7/ADR to IC50 of parent MCF7): 0.2
pIC50 [14]: 6.22
